# Reference: patent publication US8163737B2 (Vertex Pharmaceuticals Incorporated, priority 2006, dated 2012)
# Columns and labels:
# endogenous CGRP receptor = endogenous CGRP receptor (Homo sapiens, UniProt O60894+Q16602); test: CGRP functional antagonism using SK-N-MC-BLA (4C10), β-lactamase transcriptional reporter assay; type: cell-based; settings: SK-N-MC (4C10) cells, inhibition of β-lactamase expression in the presence of 200 pM CGRP
# [1] = target: T1, CGRP receptor (SK-N-MC membrane) (Homo sapiens, UniProt O60894+Q16602); test: I125-CGRP binding displacement assay on purified SK-N-MC membrane
# T1 construct: Purified SK-N-MC membrane was purchased from Perkin Elmer; purchased Perkin Elmer; host or cells: SK-N-MC membrane
# Method: Purified SK-N-MC membrane was purchased from Perkin Elmer. The membrane was thawed quickly and placed on ice. The compounds were diluted with CGRP binding solution (25 mM Tris-HCl, pH7.4, 5 mM MgCl2, 0.1% BSA and 0.05% Tween). The membrane was diluted 1:20 with the binding solution and homogenized with Tissue Matster-50 Homogenizer (Omni International) for 30 sec. The homogenized membrane was added to compounds in the binding solution. […] After 2 hour incubation at room temperature, the reaction was stopped by rapid filtration through 0.5% PEI treated GF/C filter plate (Perkin Elmer) and the filter plate was washed with ice-cold washing solution (50 mM Tris HCl, pH7.4, 5 mM MgCl2 and 0.1% BSA) using cell harvestor (Tomtec). The radioactivity of the filter plates were read on Topcount (Packard). The nonspecific binding was determined in the control reaction where 1 uM unlabelled CGRP was preincubated with the membrane prior to I125-CGRP addition. The total binding was determined in the control reaction of the membrane and I125-CGRP in the absence of compound. The percent displacement of I125-CGRP with compounds was calculated using nonspecific and total binding controls. The curve fitting was carried out using MOD3.
# T1 sequence (Q16602 23-461): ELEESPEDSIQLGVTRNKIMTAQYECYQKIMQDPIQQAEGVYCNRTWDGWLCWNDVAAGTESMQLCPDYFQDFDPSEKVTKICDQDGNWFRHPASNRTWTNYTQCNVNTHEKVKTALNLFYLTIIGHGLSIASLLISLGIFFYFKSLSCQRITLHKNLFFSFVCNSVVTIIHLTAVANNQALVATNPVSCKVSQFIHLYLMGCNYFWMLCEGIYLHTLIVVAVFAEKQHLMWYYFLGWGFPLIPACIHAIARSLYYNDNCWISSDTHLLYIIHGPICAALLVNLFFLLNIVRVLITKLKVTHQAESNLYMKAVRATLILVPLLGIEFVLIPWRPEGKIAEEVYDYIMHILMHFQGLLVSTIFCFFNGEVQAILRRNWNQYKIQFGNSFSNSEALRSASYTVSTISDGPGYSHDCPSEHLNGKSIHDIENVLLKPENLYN
# T1 sequence (O60894 27-148): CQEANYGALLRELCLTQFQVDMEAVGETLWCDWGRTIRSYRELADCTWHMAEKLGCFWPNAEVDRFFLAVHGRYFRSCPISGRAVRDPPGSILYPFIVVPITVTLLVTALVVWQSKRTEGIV
# endogenous CGRP receptor, sequence (Q16602 23-461): as the sequence (Q16602 23-461) above
# endogenous CGRP receptor, sequence (O60894 27-148): as the sequence (O60894 27-148) above
SMILES,IC50 (endogenous CGRP receptor),Ki [1]
CC(C)(C)CCN1C(=O)[C@H](CC(=O)N2CCC(N3CCc4ccccc4NC3=O)CC2)SC1c1cccc(F)c1N1CCC(F)C1 (stereo partly shown) [Compound 481],1000 to 5000 nM,< 1000 nM
CC(C)CCN1C(=O)C(CC(=O)N2CCC(n3cc(-c4ccccc4)[nH]c3=O)CC2)SC1c1ccccc1 (stereo not shown) [Compound 110],> 5000 nM,> 5000 nM
CN1CCN(c2ccc(F)cc2[C@H]2S[C@@H](CC(=O)N3CCC(n4c(=O)[nH]c5ncccc54)CC3)C(=O)N2CCC(C)(C)C)CC1 [Compound 397],> 5000 nM,> 5000 nM
CC(C)(C)CCN1C(=O)C(CC(=O)N2CCC(N3CCc4ccccc4NC3=O)CC2)SC1c1ccccc1C1=CCNCC1 (stereo not shown) [Compound 414],1000 to 5000 nM,> 5000 nM
CC(C)(C)N1CCN(c2c(F)cccc2[C@H]2S[C@@H](CC(=O)N3CCC(N4CCc5ccccc5NC4=O)CC3)C(=O)N2CCc2ccc(F)cc2)CC1 [Compound 503],< 1000 nM,< 1000 nM
O=C(CC1SC(c2ccccc2)N(CC2CCCCC2)C1=O)N1CCC(N2CCc3ccccc3NC2=O)CC1 (stereo not shown) [Compound 147],< 1000 nM,< 1000 nM
CC(C)(C)CCN1C(=O)C(CC(=O)N2CCC(n3c(=O)[nH]c4ccccc43)CC2)SC1c1ccccc1-n1ccnc1 (stereo not shown) [Compound 295],< 1000 nM,< 1000 nM
CC(C)(C)CCN1C(=O)[C@H](CC(=O)N2CCC(N3CCc4ccccc4NC3=O)CC2)SC1c1cccc(F)c1N1CCC(O)C1 (stereo partly shown) [Compound 463],1000 to 5000 nM,< 1000 nM
Cc1cc(C2SC(CC(=O)N3CCC(N4Cc5ccccc5NC4=O)CC3)C(=O)N2CC2CCCCC2)cc2cn[nH]c12 (stereo not shown) [Compound 145],< 1000 nM,< 1000 nM
O=C(CC1SC(c2ccccc2)N(c2ccc3[nH]ncc3c2)C1=O)N1CCC(N2Cc3ccccc3NC2=O)CC1 (stereo not shown) [Compound 287],1000 to 5000 nM,1000 to 5000 nM
O=C(CC1SC(c2ccccc2)N(CCc2ccncc2)C1=O)N1CCC(n2cc(-c3ccccc3)[nH]c2=O)CC1 (stereo not shown) [Compound 53],> 5000 nM,> 5000 nM
CC(C)CCN1C(=O)[C@H](CC(=O)N2CCC(N3CCc4ccccc4NC3=O)CC2)SC1c1cccc(F)c1N1CCN(C(C)(C)C)CC1 (stereo partly shown) [Compound 545],< 1000 nM,< 1000 nM
CC(C)CN1CCN(c2ccccc2[C@H]2S[C@@H](CC(=O)N3CCC(N4CCc5ccccc5NC4=O)CC3)C(=O)N2CCC(C)(C)C)C(=O)C1 [Compound 541],< 1000 nM,< 1000 nM
"CC(C)(C)CCN1C(=O)C(CC(=O)N2CCC(N3CCc4ccccc4NC3=O)CC2)SC1c1cccc(F)c1NCCN1CCOCC1 (stereo in doubt) [Compound 506, 3-(1-(2-((5S)-2-(2-(2-Morpholinoethylamino)-3-fluorophenyl)-3-(3,3-dimethylbutyl)-4-oxothiazolidin-5-yl)acetyl)piperidin-4-yl)-4,5-dihydro-1H-benzo[d][1,3]diazepin-2(3H)-one]",< 1000 nM,< 1000 nM
CN1CCN(c2ccc(F)cc2C2SC(CC(=O)N3CCC(n4c(=O)[nH]c5ccccc54)CC3)C(=O)N2CCC(C)(C)C)CC1 (stereo not shown) [Compound 354],< 1000 nM,< 1000 nM
CN(C)c1ccccc1C1SC(CC(=O)N2CCC(N3Cc4ccccc4NC3=O)CC2)C(=O)N1CCC(C)(C)C (stereo not shown) [Compound 211],1000 to 5000 nM,< 1000 nM
O=C(CC1SC(c2ccccc2)N(CCc2ccncc2)C1=O)N1CCC(N2Cc3ccccc3NC2=O)CC1 (stereo not shown) [Compound 236],1000 to 5000 nM,< 1000 nM
CC(C)CN1C(=O)[C@H](CC(=O)N2CCC(n3c(=O)[nH]c4ncccc43)CC2)S[C@H]1c1cccc(F)c1N1CCN(C(C)(C)C)CC1 [Compound 496],< 1000 nM,< 1000 nM

# More lines, now with the values ahead:
IC50 (endogenous CGRP receptor),Ki [1],SMILES
< 1000 nM,< 1000 nM,CC(C)N1CCN(c2cccc(Cl)c2[C@H]2S[C@H](CC(=O)N3CCC(N4CCc5ccccc5NC4=O)CC3)C(=O)N2CCC(C)(C)C)CC1 [Compound 434]
< 1000 nM,< 1000 nM,CC(C)CCN1C(=O)C(CC(=O)N2CCC(n3cc4ccccc4nc3=O)CC2)SC1c1ccccc1 (stereo not shown) [Compound 259]
< 1000 nM,< 1000 nM,CC(C)CN1C(=O)C(CC(=O)N2CCC(N3Cc4ccccc4NC3=O)CC2)SC1c1ccccc1 (stereo not shown) [Compound 9]
< 1000 nM,< 1000 nM,CC(C)(C)CCN1C(=O)C(CC(=O)N2CCC(N3CCc4ccccc4NC3=O)CC2)SC1c1ccccc1N1CCOCC1 (stereo not shown) [Compound 70]
< 1000 nM,< 1000 nM,CC(C)(C)N1CCN(c2c(F)cccc2[C@@H]2S[C@@H](CC(=O)N3CCC(N4CCc5ccccc5NC4=O)CC3)C(=O)N2CC2CCOCC2)CC1 [Compound 524]
< 1000 nM,< 1000 nM,"CC(C)(C)CCN1C(=O)C(CC(=O)N2CCC(n3c(=O)[nH]c4ncccc43)CC2)SC1c1cccc(F)c1NCCN1CCOCC1 (stereo in doubt) [Compound 517, 1-(1-(2-((5S)-2-(2-(2-Morpholinoethylamino)-3-fluorophenyl)-3-(3,3-dimethylbutyl)-4-oxothiazolidin-5-yl)acetyl)piperidin-4-yl)-1H-imidazo[4,5-b]pyridin-2(3H)-one]"
< 1000 nM,< 1000 nM,CC(C)CCN1C(=O)C(CC(=O)N2CCC(N3Cc4ccccc4NC3=O)CC2)SC1c1ccccc1Br (stereo not shown) [Compound 268]
< 1000 nM,< 1000 nM,CCCCN1C(=O)[C@H](CC(=O)N2CCC(N3CCc4ccccc4NC3=O)CC2)SC1c1cccc(F)c1N1CCN(C(C)(C)C)CC1 (stereo partly shown) [Compound 522]
< 1000 nM,< 1000 nM,CC(C)CCN1C(=O)C(CC(=O)N2CCC(N3CCc4ccccc4NC3=O)CC2)SC1c1ccccc1-n1cccn1 (stereo not shown) [Compound 183]
< 1000 nM,< 1000 nM,CC(C)(C)CCN1C(=O)[C@H](CC(=O)N2CCC(n3c(=O)[nH]c4ncccc43)CC2)S[C@H]1c1cccc(F)c1N1CCC(N)C1 (stereo partly shown) [Compound 470]
< 1000 nM,< 1000 nM,CC(C)(C)CCN1C(=O)C(CC(=O)N2CCC(N3CCc4ccccc4NC3=O)CC2)SC1c1cccc(F)c1F (stereo not shown) [Compound 48]
< 1000 nM,< 1000 nM,CC(C)CCN1C(=O)C(CC(=O)N2CCC(N3Cc4ccccc4NC3=O)CC2)SC12c1ccccc1-c1ccccc12 (stereo not shown) [Compound 14]
< 1000 nM,< 1000 nM,CC(C)(C)CCN1C(=O)[C@H](CC(=O)N2CCC(N3CCc4ccccc4NC3=O)CC2)SC1c1ccn(C2CCNCC2)n1 (stereo partly shown) [Compound 491]
< 1000 nM,< 1000 nM,CC(C)(C)CCN1C(=O)[C@H](CC(=O)N2CCC(N3CCc4ccccc4NC3=O)CC2)SC1c1ccccc1N1CCN(C(=O)OC(C)(C)C)CC1=O (stereo partly shown) [Compound 510]
< 1000 nM,< 1000 nM,CC(C)N1CCN(c2c(F)cccc2[C@H]2S[C@@](C)(CC(=O)N3CCC(n4c(=O)[nH]c5ncccc54)CC3)C(=O)N2CCC(C)(C)C)CC1 [Compound 446]
< 1000 nM,< 1000 nM,CC(C)N1CCN(c2c(F)cccc2C2SC(CC(=O)N3CCC(n4c(=O)[nH]c5ncccc54)CC3)C(=O)N2CCC(C)(C)C)CC1 (stereo not shown) [Compound 341]
< 1000 nM,< 1000 nM,COc1ccccc1C1SC(CC(=O)N2CCC(N3Cc4ccccc4NC3=O)CC2)C(=O)N1CCC(C)C (stereo not shown) [Compound 80]
